Patent US20260225997A1, “IONIZABLE AMINE LIPIDS” (Intellia Therapeutics, Inc., priority 2018, published 2026)
Read-outs that look alike come from different tables or passages of the source. Each block holds one compound with its values, some of them ahead of it.

Assays:
[1] = pKa measurement of unformulated amine lipid (fluorescence, method of Jayaraman et al.); type: physicochemical; details: 100 μM in 0.1 M phosphate buffer pH 4.5-9.0
Experimental: The pKa of each amine lipid was determined according to the method in Jayaraman, et al. (Angewandte Chemie, 2012) with the following adaptations. […] Lipid was diluted to 100 μM in 0.1 M phosphate buffer (Boston Bioproducts) where the pH ranged from 4.5-9.0. Fluorescence intensity was measured using excitation and emission wavelengths of 321 nm and 448 nm.

[2] = test system: TTR; assay: Transthyretin (TTR) ELISA analysis of mouse serum after LNP dosing; type: in vivo; details: for response vs control in vivo at 0.1 mg/kg / response vs control in vivo at 0.03 mg/kg: read-out: Serum TTR % TSS
Experimental: (§1) CD-1 female mice, ranging from 6-10 weeks of age were used in each study. Animals were weighed and grouped according to body weight for preparing dosing solutions based on group average weight. LNPs were dosed via the lateral tail vein in a volume of 0.2 mL per animal (approximately 10 mL per kilogram body weight). The animals were periodically observed post dose for adverse effects for at least 24 hours post dose. Animals were euthanized at 6 or 7 days by exsanguination via cardiac puncture under isoflurane anesthesia. Blood was collected into serum separator tubes or into tubes containing buffered sodium citrate for plasma as described herein. For studies involving in vivo editing, liver tissue was collected from each animal for DNA extraction and analysis.
CD-1 female mice were dosed i.v. at 0.1 mpk or 0.3 mpk. […] For animals dosed with G282 targeting TTR, blood and the liver were collected and serum TTR and editing were measured. For animals dosed with G650 targeting B2M, liver was collected and editing was measured.
Blood was collected and the serum was isolated as indicated. The total mouse TTR serum levels were determined using a Mouse Prealbumin (Transthyretin) ELISA Kit (Aviva Systems Biology, Cat. OKIA00111). Briefly, sera were serial diluted with kit sample diluent to a final dilution of 10,000-fold for 0.1 mpk dose and 2,500-fold for 0.3 mpk. This diluted sample was then added to the ELISA plates and the assay was then carried out according to directions.

[3] = test system: TTR; assay: TTR editing in mouse liver by NGS after i.v. LNP delivery of Cas9 mRNA and sgRNA; type: in vivo; details: CD-1 female mice; for % Editing (TTR, liver): Example 55: 0.1 mpk i.v.
Experimental: Preparations of various LNP compositions were prepared with amine lipids. In assays for percent liver editing in mice, Cas9 mRNA and chemically modified sgRNA were formulated in LNPs, at either a 1:1 w/w ratio or a 1:2 w/w ratio. LNPs are formulated with a composition of a given ionizable lipid (e.g. an amine lipid), DSPC, cholesterol, and PEG-2k-DMG, with a 6.0 N:P ratio.
as §1
Cohorts of mice were measured for liver editing by Next-Generation Sequencing (NGS).
In brief, to quantitatively determine the efficiency of editing at the target location in the genome, genomic DNA was isolated and deep sequencing was utilized to identify the presence of insertions and deletions introduced by gene editing.
PCR primers were designed around the target site (e.g., B2M), and the genomic area of interest was amplified. Additional PCR was performed according to the manufacturer's protocols (Illumina) to add the necessary chemistry for sequencing. The amplicons were sequenced on an Illumina MiSeq instrument. The reads were aligned to the […] after eliminating those having low quality scores. The resulting files containing the reads were mapped to the reference genome (BAM files), where reads that overlapped the target region of interest were selected and the number of wild type reads versus the number of reads which contain an insertion, substitution, or deletion was calculated.
The editing percentage (e.g., the “editing efficiency” or “percent editing”) is defined as the total number of sequence reads with insertions or deletions over the total number of sequence reads, including wild type.
CD-1 female mice were dosed i.v. at 0.1 mpk or 0.3 mpk. At 6 days post-dose, animals were sacrificed. For animals dosed with G282 targeting TTR, blood and the liver were collected and serum TTR and editing were measured. For animals dosed with G650 targeting B2M, liver was collected and editing was measured.

[4] = Example 58: 0.1 mpk i.v., 6 days post-dose, G282 1:1
[5] = Mus musculus, iv, 144 h, Example 58: 0.1 mpk i.v., 6 days post-dose, G282 1:1
[6] = Example 55: 0.1 mpk i.v., 7 days post-dose, G282 1:1
[7] = Example 59: 0.1 mpk i.v., 7 days post-dose, G282 1:1
[8] = Example 61: 0.1 mpk i.v., 7 days post-dose, G282 1:1
[9] = Example 62: 0.03 mpk i.v., 7 days post-dose, G282 1:2
[10] = Example 62: 0.1 mpk i.v., 7 days post-dose, G282 1:2
[11] = Example 64: Dose 0.03 mpk (table) i.v., 7 days post-dose, G282 1:1
[12] = Mus musculus, iv, 168 h, Example 62: 0.03 mpk i.v., 7 days post-dose, G282 1:2
[13] = Mus musculus, iv, 168 h, Example 62: 0.1 mpk i.v., 7 days post-dose, G282 1:2
[14] = Example 63: 0.03 mpk i.v., 7 days post-dose, G282 1:1
[15] = Example 63: 0.1 mpk i.v., 7 days post-dose, G282 1:1

Compound: CCCCCCCCCCCCOC(=O)CCCCN(CCO)CCCCCCCC(OCCCCCCCC)OCCCCCCCC [Compound 14, dodecyl 5-((8,8-bis(octyloxy)octyl)(2-hydroxyethyl)amino)pentanoate]
pKa [1]: 6.46 | Serum TTR [2, 4]: 928 µg/mL | response vs control in vivo at 0.1 mg/kg [2, 5]: 94% | Editing Mean % Indel [3, 4]: 12.1%

Compound: CCCCCCCCCOC(=O)CCCCCCCN(CCO)CCCCCCC(OCCCCCCCC)OCCCCCCCC [Compound 10, nonyl 8-((7,7-bis(octyloxy)heptyl)(2-hydroxyethyl)amino)octanoate]
pKa [1]: 6.05 | Serum TTR [2, 6]: 206 µg/mL | Serum TTR (% TSS) [2, 6]: 18 % TSS | Serum TTR [2, 7]: 80 µg/mL | Serum TTR [2, 8]: 330 µg/mL | Serum TTR [2, 9]: 424 µg/mL | Serum TTR [2, 10]: 179 µg/mL | Serum TTR [2, 11]: 409.2 µg/mL | response vs control in vivo at 0.1 mg/kg ([2]; Mus musculus, iv, 168 h, Example 59: 0.1 mpk i.v., 7 days post-dose, G282 1:1): 9% | response vs control in vivo at 0.1 mg/kg ([2]; Mus musculus, iv, 168 h, Example 61: 0.1 mpk i.v., 7 days post-dose, G282 1:1): 26% | response vs control in vivo at 0.03 mg/kg [2, 12]: 67% | response vs control in vivo at 0.1 mg/kg [2, 13]: 28% | inhibition in vivo at 0.03 mg/kg ([2]; Mus musculus, iv, 168 h, Example 64: Dose 0.03 mpk (table) i.v., 7 days post-dose, G282 1:1, read-out: Serum TTR (% KD)): 28.5% | % Editing (TTR, liver) ([3]; 7 days post-dose, G282 1:1): 50% | Editing Mean % Indel [3, 7]: 60.1% | Editing Mean % Indel [3, 8]: 47.2% | Editing Mean % Indel [3, 9]: 15.6% | Editing Mean % Indel [3, 10]: 51.3% | Editing Mean % Indel [3, 11]: 27.2%

Compound: CCCCCCCCCOC(=O)CCCCCCCN(CCO)CCCCCCCC(OCCCCCC)OCCCCCC [Compound 8, nonyl 8-((8,8-bis(hexyloxy)octyl)(2-hydroxyethyl)amino)octanoate]
pKa [1]: 6.37 | Serum TTR [2, 6]: 387 µg/mL | Serum TTR (% TSS) [2, 6]: 34 % TSS | % Editing (TTR, liver) ([3]; 7 days post-dose, G282 1:1): 43%

Compound: CCCCCCCCOC(CCCCCCCN(CCO)CCCCCCCC(=O)OCCCCCCC)OCCCCCCCC [Compound 15, heptyl 8-((8,8-bis(octyloxy)octyl)(2-hydroxyethyl)amino)octanoate]
pKa [1]: 6.34 | Serum TTR [2, 4]: 179 µg/mL | Serum TTR [2, 9]: 548 µg/mL | Serum TTR [2, 10]: 180 µg/mL | response vs control in vivo at 0.1 mg/kg [2, 5]: 18% | response vs control in vivo at 0.03 mg/kg [2, 12]: 86% | response vs control in vivo at 0.1 mg/kg [2, 13]: 28% | Editing Mean % Indel [3, 4]: 50.3% | Editing Mean % Indel [3, 9]: 16.4% | Editing Mean % Indel [3, 10]: 57.4%

Compound: CCCCCCCCOC(CCCCCCN(CCO)CCCCCCCC(=O)OCCCCCCC)OCCCCCCCC [Compound 31, heptyl 8-((7,7-bis(octyloxy)heptyl)(2-hydroxyethyl)amino)octanoate]
pKa [1]: 6.47

Compound: CCCCCCCCOC(CCCCCCCN(CCO)CCCCCCCC(=O)OCCCCC)OCCCCCCCC [Compound 29, pentyl 8-((8,8-bis(octyloxy)octyl)(2-hydroxyethyl)amino)octanoate]
pKa [1]: 6.54 | Serum TTR [2, 14]: 718.48 µg/mL | Serum TTR [2, 15]: 660.46 µg/mL | response vs control in vivo at 0.03 mg/kg ([2]; Mus musculus, iv, 168 h, Example 63: 0.03 mpk i.v., 7 days post-dose, G282 1:1): 89% | response vs control in vivo at 0.1 mg/kg ([2]; Mus musculus, iv, 168 h, Example 63: 0.1 mpk i.v., 7 days post-dose, G282 1:1): 81.8% | Editing Mean % Indel [3, 14]: 5.76% | Editing Mean % Indel [3, 15]: 15.96%

Compound: CCCCCCCCCOC(=O)CCCCCCCN(CCCCCCC(OCCCCCCCC)OCCCCCCCC)CCCOC(C)=O [Compound 50, nonyl 8-((3-acetoxypropyl)(7,7-bis(octyloxy)heptyl)amino)octanoate]
pKa [1]: 5.45

Compound: CCCCCCCCOC(CCCCCCCN(CCO)CCCCCCCC(=O)OC(C)CCCCCCCC)OCCCCCCCC (stereo not shown) [Compound 21, decan-2-yl 8-((8,8-bis(octyloxy)octyl)(2-hydroxyethyl)amino)octanoate]
pKa [1]: 5.99

Compound: CCCCCCCCOC(CCCCCCCN(CCO)CCCCCCCCCCOC(=O)CCCCCC)OCCCCCCCC [Compound 24, 10-((8,8-bis(octyloxy)octyl)(2-hydroxyethyl)amino)decyl heptanoate]
pKa [1]: 5.95

Compound: CCCCCCCCCOC(=O)CCCCCCCN(CCCCCCC(OCCCCCCCC)OCCCCCCCC)CCOC(C)=O [Compound 49, nonyl 8-((2-acetoxyethyl)(7,7-bis(octyloxy)heptyl)amino)octanoate]
pKa [1]: 5.32

Further lines, results first:

pKa [1]: 6.93
Compound: CCCCCCCCCOC(=O)CCCCCCCN(CCCCCCC(OCCCCCCCC)OCCCCCCCC)CCNS(C)(=O)=O [Compound 47, nonyl 8-((7,7-bis(octyloxy)heptyl)(2-(methylsulfonamido)ethyl)amino)octanoate]

pKa [1]: 6.37
Compound: CCCCCCCCOC(CCCCCCN(CCO)CCCCCCCC(=O)OC(CC)CCCC)OCCCCCCCC (stereo not shown) [Compound 35, heptan-3-yl 8-((7,7-bis(octyloxy)heptyl)(2-hydroxyethyl)amino)octanoate]

pKa [1]: 6.33
Compound: CCCCCCCCOC(CCCCCCN(CCO)CCCCCCCC(=O)OC(CC)CCCCCC)OCCCCCCCC (stereo not shown) [Compound 33, nonan-3-yl 8-((7,7-bis(octyloxy)heptyl)(2-hydroxyethyl)amino)octanoate]

pKa [1]: 7.81
Compound: CCCCCCCCCOC(=O)CCCCCCCN(CCCN)CCCCCCC(OCCCCCCCC)OCCCCCCCC [Compound 38, nonyl 8-((3-aminopropyl)(7,7-bis(octyloxy)heptyl)amino)octanoate]

pKa [1]: 6.47
Compound: CCCCCCCCOC(CCCCCCN(CCO)CCCCCCCC(=O)OCCCCC)OCCCCCCCC [Compound 34, pentyl 8-((7,7-bis(octyloxy)heptyl)(2-hydroxyethyl)amino)octanoate]

pKa [1]: 6.36
Compound: CCCCCCCCOC(CCCCCCN(CCO)CCCCCCCC(=O)OC(C)CCCCCC)OCCCCCCCC (stereo not shown) [Compound 32, octan-2-yl 8-((7,7-bis(octyloxy)heptyl)(2-hydroxyethyl)amino)octanoate]

pKa [1]: 6.3
Compound: CCCCCCCCCOC(=O)CCCCCCCN(CCCO)CCCCCCC(OCCCCCCCC)OCCCCCCCC [Compound 37, nonyl 8-((7,7-bis(octyloxy)heptyl)(3-hydroxypropyl)amino)octanoate]

pKa [1]: 7.2
Compound: CCCCCCCCCOC(=O)CCCCCCCN(CCN)CCCCCCC(OCCCCCCCC)OCCCCCCCC [Compound 36, nonyl 8-((2-aminoethyl)(7,7-bis(octyloxy)heptyl)amino)octanoate]

pKa [1]: 7.61
Compound: CCCCCCCCCOC(=O)CCCCCCCN(CCCCCCC(OCCCCCCCC)OCCCCCCCC)CCCNS(C)(=O)=O [Compound 48, nonyl 8-((7,7-bis(octyloxy)heptyl)(3-(methylsulfonamido)propyl)amino)octanoate]
